Our source for the mass density values is the NIST ThermoML archive (doi:10.1021/je800429j).

± gives the expanded uncertainty stated by the source.

For this data set the following is noted: 283.15 K; 101.33 kPa; Liquid; Pycnometric method.

On to `CCCCCC(=O)OCC(COC(=O)CCCCC)(COC(=O)CCCCC)COC(=O)CCCCC` [pentaerythritol tetrahexanoate], for which the mass density was 1004.2 ± 1.6 kg/m3.
